The nature of data set [1]: Solubility of compound in phosphate buffered saline buffer. The format is physicochemical.
The test system of data set [2] is Trypanosoma cruzi. Briefly: Antitrypanosomal activity against trypomastigote form of Trypanosoma cruzi Tulahuen expressing beta-galactosidase infected in mouse NIH/3T3 cells assessed as inhibition of parasite replication after 4 days by betagalactosidase-based luminescence assay. The note with it: NIH3T3, 96 h. The format is functional, organism-based.
The nature of data set [3]: Selectivity ratio of IC50 for mouse NIH/3T3 cells to IC50 for trypomastigote form of Trypanosoma cruzi Tulahuen. The format is ADME, cell-based. The note with it: read-out: Ratio IC50.
Data set [4] relates to NIH3T3. Put plainly: Cytotoxicity against mouse NIH/3T3 cells. In kind it is cell-based. Conditions: for IC50: Mus musculus, NIH3T3; for Activity: mouse, nih3t3.
Data set [5] concerns NIH3T3. Put plainly: Cytotoxicity against mouse NIH/3T3 cells up to 19.5 uM. In kind it is cell-based.
Data set [6] is described as follows: Chemical stability of the compound in phosphate buffered saline assessed as compound remaining after 48 hrs. In kind it is physicochemical. The note with it: read-out: Stability.

The structures appear in SMILES notation.

As for `CCCn1cc(CN2CCCC(C(=O)c3cccc(C(F)(F)F)c3)C2)cn1` (centres undefined), the solubility (as a rule, the concentration that dissolves in the medium under given conditions) in data set [1] is more than 200 µM. Besides, the IC50 (as a rule, the midpoint of a concentration-inhibition curve) in data set [2] was found to be 0.25 µM.

For `COc1ccc(CCN(C)C(=O)C2CCCN(Cc3ccccc3)C2)cc1OC` (centres undefined), the selectivity ratio in data set [3] was 33.6. In data set [1], this molecule had a solubility of more than 100 µM. Further, the results for the IC50 in data set [4] and in data set [2] were 47 µM and 1.4 µM, respectively.

For the molecule `COc1ccc(C(=O)C2CCCN(CCc3ccccc3)C2)cc1OC` (centres undefined), in data set [3], the selectivity ratio amounted to 37.7. In data set [1], this molecule returned a solubility of more than 200 µM. The IC50 is 19.5 µM in data set [4] and 0.518 µM in data set [2].

As for `CCN(CC)C(=O)C1CCCN(Cc2cccc(Cl)c2)C1` (centres undefined), in data set [3], the selectivity ratio was 16.6. In data set [1], this molecule displayed a solubility of more than 100 µM. The figures for the IC50 in data set [4] and in data set [2] were 164 µM and 9.91 µM, respectively.

`CCn1ncc(CN2CCCC(C(=O)c3cccc(OC(C)C)c3)C2)c1C` (centres undefined) returned a solubility in data set [1] of more than 200 µM. In data set [4], the Activity entry was “Non-toxic”. Besides, in data set [2], the IC50 amounted to 0.056 µM.

Molecule `Cc1cc(C)n(CC(=O)N2CCCC(C(=O)c3cccc(OC(C)C)c3)C2)n1` (centres undefined) gave a solubility in data set [1] of more than 200 µM. Besides, in data set [2], the IC50 stood at 16.5 µM.

On to `CN(Cc1ccccc1)C(=O)C1CCCN(Cc2cccc(Cl)c2)C1` (centres undefined), for which the selectivity ratio in data set [3] is 123. Also, the solubility in data set [1] was more than 100 µM. Besides, the IC50 in data set [4] was found to be 70.3 µM; in data set [2] it was 0.57 µM.

For `CN(Cc1ccccc1)C(=O)C1CCCN(Cc2ccc([N+](=O)[O-])cc2)C1` (centres undefined), in data set [3], the selectivity ratio is 6.68. This molecule also yielded a solubility in data set [1] of more than 100 µM. The IC50 in data set [4] stood at 51 µM; in data set [2], 7.63 µM.

Consider `COc1ccc(C(=O)C2CCCN(CC3CCCCC3)C2)cc1OC` (centres undefined), for which the solubility in data set [1] was more than 200 µM. Besides, the IC50 in data set [2] was 1.57 µM.

In the case of `COc1ccc(CN2CCCC(C(=O)N3CCc4ccccc4C3)C2)cc1OC` (centres undefined), the selectivity ratio in data set [3] worked out at 11.8. Also, the solubility in data set [1] was more than 100 µM. Moreover, the half-inhibitory concentration (IC50) is 41.7 µM in data set [4] and 3.54 µM in data set [2].

For `CC(C)Oc1cccc(C(=O)C2CCCN(Cc3cnn(C(C)C)c3)C2)c1` (centres undefined), the solubility in data set [1] was more than 200 µM. Further, in data set [4], the Activity entry is “Non-toxic”. For the same molecule, the 50% inhibitory concentration (IC50) in data set [2] turned out to be 0.054 µM.

For `COc1ccc(CCN(C)C(=O)C2CCCN(Cc3ccc(F)cc3)C2)cc1OC` (centres undefined), the selectivity ratio in data set [3] came out at 14.9. The molecule further showed a solubility in data set [1] of more than 100 µM. Moreover, the IC50 amounted to 64.7 µM in data set [4] and 4.33 µM in data set [2].

Consider `Cn1cc(CN2CCCC(C(=O)c3ccc(C(C)(C)C)cc3)C2)cn1` (centres undefined), for which the solubility in data set [1] is more than 200 µM. Moreover, the IC50 in data set [2] amounted to 1.63 µM.

As to `COc1ccc(CCN(C)C(=O)C2CCCN(Cc3ccc(OC)c(OC)c3)C2)cc1OC` (centres undefined), in data set [1], the solubility is more than 500 µM. Further, the Activity entry in data set [5] and in data set [4] was “Non-toxic” in each case. Further, the remaining at 48 h in data set [6] came to 84%. Further, in data set [2], the IC50 was 0.109 µM.

In the case of `CN(Cc1ccccc1)C(=O)C1CCCN(Cc2ccccc2C(F)(F)F)C1` (centres undefined), the selectivity ratio in data set [3] was found to be 3.98. Also, in data set [1], the solubility was more than 100 µM. The IC50 in data set [4] is 63.3 µM; in data set [2] it was 15.9 µM.

Consider `COc1cc2c(cc1OC)CN(C(=O)C1CCCN(Cc3ccccc3)C1)CC2` (centres undefined), for which, in data set [3], the selectivity ratio stood at 69.1. Further, the solubility in data set [1] was more than 100 µM. For the same molecule, the IC50 amounted to 52.7 µM in data set [4] and 0.763 µM in data set [2].

On to `CN(Cc1ccccc1)C(=O)C1CCCN(Cc2ccc(Br)cc2)C1` (centres undefined), for which the selectivity ratio in data set [3] came to 24.6. In data set [1], this molecule showed a solubility of more than 100 µM. Further, the IC50 turned out to be 74.3 µM in data set [4] and 3.01 µM in data set [2].

`COc1ccc(CN2CCCC(C(=O)N3CCCC3)C2)c(OC)c1OC` (centres undefined): in data set [1], the solubility is more than 100 µM. The Activity result in data set [4] is given as “Non-toxic”. Besides, in data set [2], the IC50 was found to be 1.01 µM.

Take `COc1ccccc1CN1CCCC(C(=O)N(C)Cc2ccccc2)C1` (centres undefined): the selectivity ratio in data set [3] came out at 7.16. Besides, in data set [1], the solubility is more than 100 µM. The results for the IC50 in data set [4] and in data set [2] were 77.3 µM and 10.8 µM, respectively.

Consider `CN(Cc1ccccc1)C(=O)C1CCCN(Cc2ccc(C(F)(F)F)cc2)C1` (centres undefined), for which the selectivity ratio in data set [3] is more than 1000. The same molecule returned a solubility in data set [1] of more than 100 µM. The IC50 in data set [4] worked out at 61.6 µM; in data set [2], 0.008 µM.

In turn, `CCCn1ncc(CN2CCCC(C(=O)c3cccc(OC(C)C)c3)C2)c1C` (centres undefined) displayed a solubility in data set [1] of more than 500 µM. The Activity entry in data set [5] and in data set [4] was “Non-toxic” in each case. Besides, the IC50 in data set [2] was determined as 0.035 µM.

These data come from ChEMBL document CHEMBL1921698, “Identification of small-molecule inhibitors of Trypansoma cruzi replication” (Bioorg Med Chem Lett, 2011).
